Columns and labels:
[1] = Degradation of apelin peptides by plasma from fasted normal NIH Swiss mice (rp-HPLC, MALDI-TOF MS); assay type: in vitro ADME
Outline: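 Apelin peptides were incubated with plasma from fasted normal NIH Swiss mice for 4 h, and the reaction was stopped with TFA. Products were separated by C-8 rp-HPLC with detection at 214 nm. Peak fractions were identified by MALDI-TOF MS, giving fragment molecular weights and retention times.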

[2] = test system: NIH Swiss mice fed a high-fat diet for 150 days; assay: Acute and delayed i.p. glucose tolerance test, blood glucose and plasma insulin; assay type: in vivo; details: acute, Table 4
Outline: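 Diet-induced obese-diabetic mice (high-fat diet 150 days, 18 h fasted) received i.p. glucose (18 mmol/kg) alone or with apelin analogues (25 nmol/kg), or analogues given 2, 8 or 16 h beforehand. Tail blood glucose and plasma insulin sampled at 0, 15, 30, 60, 105 min; n=8, mean±SEM.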

[3] = test system: male NIH Swiss mice; assay: Acute effects of apelin analogues on voluntary food intake; assay type: in vivo; details: 100 nmol/kg i.p., FIG. 37
Procedure: Saline and peptide analogues were administered by intraperitoneal injection and cumulative food intake was monitored at 30, 60, 90 and 120 min after feeding.
Mice were habituated to a daily feeding regime of 3 h/day by progressively reducing the daily feeding period over 3 weeks. This was performed to ensure mice consumed entire daily food intake within 3 h, thereby allowing “peptide” effects to be measured over the known eating period of mice. On days 1 to 7, mice were supplied with food from 10:00 h to 20:00 h, on days 8 to 14, food was presented from 10:00 h to 19:00 h and on days 15 to 21, food was restricted to the 3 h interval from 10:00 h to 13:00 h. This regime was continued throughout the experimental period.
Mice that were habituated to a 3 h daily feeding regime were administered with an i.p. injection of saline (0.9% w/v NaCl) or apelin peptide (1-100 nmol/kg bw) at 10:00 h (n=8). Immediately following injection, food was initially weighed and then presented to the mice and subsequently weighed at 30 min intervals up to 180 min.

[4] = plasma incubation 4 h, fragment identified by MALDI-TOF MS
[5] = peptide 25 nmol/kg i.p. with glucose 18 mmol/kg

CSCC[C@H](NC(=O)[C@@H]1CCCN1C(=O)CNC(=O)[C@H](CCCCN)NC(=O)[C@H](Cc1cnc[nH]1)NC(=O)[C@H](CO)NC(=O)[C@H](CC(C)C)NC(=O)[C@H](CCCNC(=N)N)NC(=O)[C@@H]1CCCN1C(=O)[C@H](CCCNC(=N)N)NC(=O)[C@@H](N)CCC(N)=O)C(=O)N1CCC[C@H]1C(=O)N[C@@H](Cc1ccccc1)C(=O)O [Apelin-13, reference compound]
remaining at 4 h, 263 µg/mL ([1]; NIH Swiss, pH 7.4, mouse plasma, 37° C., 4 h, mean ± SEM, 2 experiments, read-out: % intact peptide (4 h)): 25.4 ± 1.5% | half-life at 263 µg/mL ([1]; NIH Swiss, pH 7.4, mouse plasma, estimated by linear regression of % intact peptide against time, read-out: Half-life (t1/2) (converted)): 2.1 h | Rank order of stability ([1]; mouse plasma, 1 = most stable): 14 | Degradation fragment, Peak 1 [1, 4]: Apelin-13 (1-11) | Degradation fragment, Peak 2 [1, 4]: Apelin-13 (1-12) | Rank order on basis of anti-hyperglycaemic efficacy [2]: 6 | Blood glucose as percent of glucose-alone control (lower = stronger glucose lowering) [2, 5]: 92% ^ | Insulin secretion, where glucose alone = 100% [2, 5]: 111% ^ | Reduction of food intake ([3]; at 90 min): 16.7% | Persistence of the food intake reduction ([3]; over 3 h): not sustainable over 3 h
